# How the values were obtained:
# [1] = test system: antibodies in sera from SARS patients (sera 1a, 1b, 2, 6, 37, 62, London, SARS-yellow, SARS-green); assay type: binding, human; design: Binding of serum 6 to linear peptides of protein X1 of SARS-CoV Urbani / Binding of serum 37 to linear peptides of protein X1 of SARS-CoV Urbani / Binding of serum 6 to looped/cyclic peptide (PEPSCAN-ELISA) / Binding of serum 37 to looped/cyclic peptide (PEPSCAN-ELISA) / Binding of serum 37 to looped/cyclic peptides of protein X1 of SARS-CoV Urbani / Binding of serum 6 to linear peptides of protein X2 / Binding of serum 37 to linear peptides of protein X2 / Binding of serum 37 to looped/cyclic peptides of protein X2 of SARS-CoV Urbani / Binding of serum 6 to linear peptides of protein M of SARS-CoV Urbani / Binding of serum 37 to linear peptides of protein M of SARS-CoV Urbani / Binding of serum 6 to looped/cyclic peptides of protein M of SARS-CoV Urbani / Binding of serum 37 to looped/cyclic peptides of protein M of SARS-CoV Urbani / Binding of serum 6 to linear peptides of protein X3 of SARS-CoV Urbani / Binding of serum 37 to linear peptides of protein X3 of SARS-CoV Urbani / Binding of serum 37 to looped/cyclic peptides of protein X3 of SARS-CoV Urbani / Binding of serum 6 to linear peptides of protein X4 of SARS-CoV Urbani / Binding of serum 37 to linear peptides of protein X4 of SARS-CoV Urbani / Binding of serum 37 to looped/cyclic peptides of protein X4 of SARS-CoV Urbani / Binding of serum 6 to linear peptides of protein X5 of SARS-CoV Urbani / Binding of serum 37 to linear peptides of protein X5 of SARS-CoV Urbani / Binding of serum 37 to looped/cyclic peptides of protein X5 of SARS-CoV Urbani / Binding of serum 6 to linear peptides of protein N of SARS-CoV Urbani / Binding of serum 37 to linear peptides of protein N of SARS-CoV Urbani / Binding of serum 6 to linear peptide (PEPSCAN-ELISA) / Binding of serum 1a to looped/cyclic peptides of protein N of SARS-CoV Urbani / Binding of serum 1b to looped/cyclic peptides of protein N of SARS-CoV Urbani / Binding of serum 2 to looped/cyclic peptides of protein N of SARS-CoV Urbani / Binding of serum 6 to looped/cyclic peptides of protein N of SARS-CoV Urbani / Binding of serum 37 to looped/cyclic peptides of protein N of SARS-CoV Urbani / Binding of serum 62 to looped/cyclic peptides of protein N of SARS-CoV Urbani / Binding of serum London to looped/cyclic peptides of protein N of SARS-CoV Urbani / Binding of serum SARS-green to looped/cyclic peptides of protein N of SARS-CoV Urbani: unit not given here
# [2] = test system: control sera (pooled serum of ten healthy LUMC hospital workers; commercial negative donor pooled serum from the Dutch bloodbank); assay type: binding, human; design: Binding of Control serum LUMC to linear peptides / Binding of Control serum Blood-bank to linear peptides / Binding of Control serum LUMC to looped peptides / Binding of Control Serum Blood-Bank to Looped peptides / Binding of Control serum LUMC to linear peptides of the protein M of SARS-CoV Urbani / Binding of Control serum Blood-bank to linear peptides of the protein M of SARS-CoV Urbani / Binding of Control serum LUMC to looped peptides of the protein M of SARS-CoV Urbani / Binding of Control Serum Blood-Bank to Looped peptides of the protein M of SARS-CoV Urbani: unit not given here
# [3] = test system: rabbit serum obtained by immunizing a rabbit with the SARS-CoV strain Frankfurt 1; assay type: binding; design: Binding of a rabbit serum to linear peptides / Binding of a rabbit serum to looped peptides / Rabbit serum linear peptides / Rabbit serum looped peptides / Binding of a rabbit serum to linear peptides of protein N of SARS-CoV Urbani (Rabbit serum linear peptides) / Binding of a rabbit serum to looped/cyclic peptides of protein N of SARS-CoV Urbani (Rabbit serum looped peptides): unit not given here
# [4] = test system: recombinant human anti-SARS-CoV antibody 03-018; assay type: binding; design: Binding of antibody 03-018 to linear peptides of the N protein of SARS-CoV Urbani / Binding of antibody 03-018 to looped/cyclic peptides of the N protein of SARS-CoV Urbani: unit not given here
Sequence,Binding of serum 1a to linear peptides of protein N of SARS-CoV Urbani [1],Binding of serum 1a to looped/cyclic peptides of protein N of SARS-CoV Urbani [1],Binding of serum 1b to linear peptides of protein N of SARS-CoV Urbani [1],Binding of serum 1b to looped/cyclic peptides of protein N of SARS-CoV Urbani [1],Binding of serum 2 to linear peptides of protein N of SARS-CoV Urbani [1],Binding of serum 2 to looped/cyclic peptides of protein N of SARS-CoV Urbani [1],Binding of serum 6 to linear peptides of protein N of SARS-CoV Urbani [1],Binding of serum 6 to looped/cyclic peptides of protein N of SARS-CoV Urbani [1],Binding of serum 37 to linear peptides of protein N of SARS-CoV Urbani [1],Binding of serum 37 to looped/cyclic peptides of protein N of SARS-CoV Urbani [1],Binding of serum 62 to linear peptides of protein N of SARS-CoV Urbani [1],Binding of serum 62 to looped/cyclic peptides of protein N of SARS-CoV Urbani [1],Binding of serum London to linear peptides of protein N of SARS-CoV Urbani [1],Binding of serum London to looped/cyclic peptides of protein N of SARS-CoV Urbani [1],Binding of serum SARS-green to linear peptides of protein N of SARS-CoV Urbani [1],Binding of serum SARS-green to looped/cyclic peptides of protein N of SARS-CoV Urbani [1],Binding of serum SARS-yellow to linear peptides of protein N of SARS-CoV Urbani [1],Binding of serum SARS-yellow to looped/cyclic peptides of protein N of SARS-CoV Urbani [1],Binding of Control Serum Blood-Bank to Looped peptides [2],Binding of Control serum Blood-bank to linear peptides [2],other results
HGKEELRFPRGQGVP,0.2,0.3,0.2,0.2,0.3,0.4,0.1,0.2,0.7,0.5,0.7,0.3,0.5,0.4,0.5,0.2,0.7,0.5,0.5,0.8,Binding of Control serum LUMC to linear peptides [2]: 0.6; Binding of Control serum LUMC to looped peptides [2]: 0.5; Binding of a rabbit serum to linear peptides of protein N of SARS-CoV Urbani (Rabbit serum linear peptides) [3]: 0.1; Binding of a rabbit serum to looped/cyclic peptides of protein N of SARS-CoV Urbani (Rabbit serum looped peptides) [3]: 0.3; Binding of antibody 03-018 to linear peptides of the N protein of SARS-CoV Urbani [4]: 0.1; Binding of antibody 03-018 to looped/cyclic peptides of the N protein of SARS-CoV Urbani [4]: 0.2
GKEELRFPRGQGVPI,0.3,0.5,0.1,0.4,0.3,0.8,0.2,0.3,0.7,0.9,0.7,1.1,0.5,0.6,0.6,0.9,0.6,0.7,0.9,0.9,Binding of Control serum LUMC to linear peptides [2]: 0.8; Binding of Control serum LUMC to looped peptides [2]: 0.9; Binding of a rabbit serum to linear peptides of protein N of SARS-CoV Urbani (Rabbit serum linear peptides) [3]: 0.1; Binding of a rabbit serum to looped/cyclic peptides of protein N of SARS-CoV Urbani (Rabbit serum looped peptides) [3]: 0.6; Binding of antibody 03-018 to linear peptides of the N protein of SARS-CoV Urbani [4]: 0.1; Binding of antibody 03-018 to looped/cyclic peptides of the N protein of SARS-CoV Urbani [4]: 0.3
RVRGGDGKMKELSPR,0.3,0.3,0.2,0.2,0.3,0.4,0.2,0.4,0.7,0.6,0.8,0.5,0.5,0.4,0.6,0.1,0.7,0.6,0.7,0.8,Binding of Control serum LUMC to linear peptides [2]: 0.9; Binding of Control serum LUMC to looped peptides [2]: 0.7; Binding of a rabbit serum to linear peptides of protein N of SARS-CoV Urbani (Rabbit serum linear peptides) [3]: 0.2; Binding of a rabbit serum to looped/cyclic peptides of protein N of SARS-CoV Urbani (Rabbit serum looped peptides) [3]: 0.6; Binding of antibody 03-018 to linear peptides of the N protein of SARS-CoV Urbani [4]: 0.1; Binding of antibody 03-018 to looped/cyclic peptides of the N protein of SARS-CoV Urbani [4]: 0.2
RQGTDYKHWPQIAQF,0.3,0.5,0.2,0.4,0.2,0.5,0.2,0.3,0.7,0.8,0.8,0.9,0.7,0.5,0.3,0.4,0.6,0.8,0.7,0.7,Binding of Control serum LUMC to linear peptides [2]: 0.7; Binding of Control serum LUMC to looped peptides [2]: 0.8; Binding of a rabbit serum to linear peptides of protein N of SARS-CoV Urbani (Rabbit serum linear peptides) [3]: 0.2; Binding of a rabbit serum to looped/cyclic peptides of protein N of SARS-CoV Urbani (Rabbit serum looped peptides) [3]: 0.4; Binding of antibody 03-018 to linear peptides of the N protein of SARS-CoV Urbani [4]: 0.1; Binding of antibody 03-018 to looped/cyclic peptides of the N protein of SARS-CoV Urbani [4]: 0.2
